Source: patent US20040157913A1, “Kappa opiate agonists for the treatment of bladder diseases” (priority 2001, published 2004)

Experiments:
Assay type in all cases: in vivo
[1] = Urine excretion in rats with increased urine excretion provoked by intraperitoneal saline (Lipschitz model); details: rats fasted overnight, 100 ml/kg physiological saline i.p., urine collected over 6 hours, dose 100 mg/kg; increase as a function of dose
Procedure: (§1) A model for measuring the effect on urine excretion is described in Lipschitz et al., J. Pharmacol. Exp. Ther. 1943; 79: 97-110. The substance to be investigated is given to rats who had previously been denied food overnight while being given free access to water. Increased urine excretion is provoked by simultaneous intraperitoneal injection of 100 ml/kg of physiological saline solution. Immediately after administration of the substance, the bladder was emptied by gentle massage of the abdomen above the bladder. The rats are subsequently kept in metabolism cages in which the urine is collected over a period of 6 hours.

[2] = test system: irritable bladder in female apes; assay: Animal model for irritable bladder induced by direct infusion of acetone into the bladder (Ghoniem et al.); details: doses of 3, 10 and 30 mg/kg
Procedure: The classical animal model for irritable bladder is described in Ghoniem et al., Neurourol. Urodyn. 1995; 14: 657-65. In female apes, irritable bladder is induced by direct infusion of acetone into the bladder. The animals are kept in metabolism cages designed for continuous monitoring of miction (urination) of the animals. The frequency, emptying volumes and flow rate of the urine are measured continuously via urine flow meters. […] Furthermore, considerable changes in bladder physiology are observed in the first week after acetone infusion: the bladder performance, measured in ml/cm, drops by almost 95%. The emptying behaviour also changes considerably, with the frequency of emptying increasing greatly with the picture of frequent dribbling and at the same time with an emptying volume reduced by about 70%. […] These changes in behaviour observed in apes are consistent with the clinical picture of considerable discomfort and pain.

[3] = Urine excretion in normal rats (without induction of increased urine excretion); details: no saline induction, dose 30 mg/kg po, increase as a function of dose
Procedure: as §1
The effect on urine excretion in normal rats is tested analogously (i.e. without induction of increased urine excretion, see above). N-Methyl-N-[(1S)-1-phenyl-2-((3S)-3-hydroxypyrrolidin-1-yl)ethyl]-2,2-diphenylacetamide increases urine excretion as a function of dose, with 5.5 times the amount of urine being excreted at only 30 mg/kg po.

CN(C(=O)C(c1ccccc1)c1ccccc1)[C@H](CN1CC[C@H](O)C1)c1ccccc1 [N-methyl-N-[(1S)-1-phenyl-2-((3S)-3-hydroxypyrrolidin-1-yl)ethyl]-2,2-diphenylacetamide]
amount of urine excreted (multiple) [1]: twice the amount of urine | effect on bladder function [2]: normalises bladder function in a dose-dependent manner | amount of urine excreted (multiple) [3]: 5.5 times
